Test results reported in patent US20040259764A1, “Reticulocyte depletion signatures” (priority 2002, published 2004).
Like-named read-outs stand apart in the source and are kept apart here. Marks after values point to notes of the source that are not given here.

Experiments:
[1] = test system: Reticulocyte Depletion Signature (Alas2 and peripherin probes), bone marrow
From the text: (§1) Compound dosing was based on the acute dose LD50s recorded in published reference or literature sources. […] The MTD (maximum tolerated dose) was then selected as the dose at which the animals […] 5-10% body weight during the 5-day range finding study. […] In addition, the clinical observations must show no or mild clinical signs during the whole of the range-finding study. At the next highest dose, signs and symptoms of adverse effects and exceeding those of the MTD should be seen to occur. Should these criteria not be met, the range-finding study is repeated using a modified dose range.
(§2) After determination of the MTD and FED for a compound, each compound was dissolved in a vehicle for administration on day 1 of the study (additional daily doses were stored as frozen aliquots from this initial formulation). Each compound was administered to three individual male Sprague-Dawley rats for each of the two doses (MTD and FED) for one of four different times (0.25 day, 1 day, 3 days, and 5 days), yielding a total of up to 24 animals per compound study. Vehicle choice was based on solubility of the compound, effect of food on adsorption, and the vehicles used in the literature reports examined during the FED selection investigations, described above. Generally, the route and vehicle in which the FED was defined are used. When there was a choice of routes and vehicles, oral routes were chosen over injection routes. Many compounds, especially oncolytics, are only administerable intravenously. In such cases, the compound was administered as an intravenous formulation into the tail vein. Orally administered compounds were given dissolved in either water, 1% carboxymethycellulose (CMC) or corn oil. Intravenously and intraperitoneally administered compounds were given in 0.9% saline. Subcutaneously administered compounds were given in corn oil. Animal body weights were determined at 1 day and, where appropriate, at 4 days, before necropsy, and clinical observations were made on a daily basis. Control animals were dosed with vehicle only. Three male animals were used for each dose and time combination used for the compound treatment.
(§3) Tissue harvest and handling: After the allocated treatment time, the tissues from the animals were harvested. […] All the tissues collected were divided to provide samples for histopathological analyses, and the remainder of each tissue was then snap-frozen.
(§4) Preparation of enriched mRNA: Punch biopsies were taken from the frozen tissues and were completely homogenized before being processed using the MagNA Pure robot. (Roche Diagnostics Corp., Indianapolis, Ind.) in combination with the MagNA Pure LC RNA Isolation kit II (Roche Diagnostics Corp). The amount of lysis buffer was adjusted to allow 1 ml per 50 mg for liver tissue, or 1 ml per 80 mg for all other tissues. After complete homogenization and before loading of the samples into the 32-well MagNA Pure plate, the samples were syringed 5-6 times using a 20-gauge 3-ml syringe to ensure a smooth solution for robotic processing. Tissue sample processing was performed in duplicate wells (loading 150 μl of homogenized sample and 150 μl of additional lysis buffere to each well) of the MagNA Pure LC, which is programmed to extract mRNA using oligo-dT selection technology into a final elution volume of 100 μl. Poly A(+) RNA sample concentration was performed using a standard ethanol precipitation protocol in the presence of glycogen (50 μg/ml). After precipitation the final purified mRNA sample was resuspended in 7 μl DEPC-treated water and quantified using a Ribogreen high-range assay (Molecular Probes) on the Victor-Wallace II Fluorometer (Perkin-Elmer).

[2] = test system: Reticulocyte Depletion Signature (Alas2 and peripherin probes), spleen
From the text: as §1, §2, §3, §4

[3] = test system: Reticulocyte Depletion Signature (Alas2 and peripherin probes), liver
From the text: as §1, §2, §3, §4

[4] = bone marrow data, signature derived from liver, * = p < 0.01
[5] = spleen data, signature derived from liver, * = p < 0.01
[6] = liver data, highest training treatment normalised to 100, * = p < 0.01

In the case of `Cc1oncc1C(=O)Nc1ccc(C(F)(F)F)cc1` [LEFLUNOMIDE], the “SPS (Bone Marrow)” value ([1]; rat, in vivo) is reported as 0, the “SPS (Spleen)” value ([2]; rat, in vivo) is reported as 71* and the “Signature Projection Score (SPS)” value ([3]; rat, in vivo) is reported as 22.

`CN(Cc1cnc2nc(N)nc(N)c2n1)c1ccc(C(=O)N[C@@H](CCC(=O)O)C(=O)O)cc1` [METHOTREXATE] was tested, and the “SPS (Bone Marrow)” value ([1]; rat, in vivo) was 0, the “SPS (Spleen)” value ([2]; rat, in vivo) was 148* and the “Signature Projection Score (SPS)” value ([3]; rat, in vivo) was 72*.

For `C[C@@H]1C[C@H]2[C@@H]3CCC4=CC(=O)C=C[C@]4(C)[C@@]3(F)[C@@H](O)C[C@]2(C)[C@@]1(O)C(=O)CO` [DEXAMETHASONE], the “Signature Projection Score (SPS)” value ([3]; rat, in vivo) was 22.

With `CC[C@H](C)C(=O)O[C@H]1C[C@@H](C)C=C2C=C[C@H](C)[C@H](CC[C@@H]3C[C@@H](O)CC(=O)O3)[C@H]21` [LOVASTATIN] the “Signature Projection Score (SPS)” value ([3]; rat, in vivo) was 26.

`CCN(CC)N=O` [N-NITROSODIETHYLAMINE] was tested, and the “SPS (Bone Marrow)” value [1, 4] was 0 and the “SPS (Spleen)” value [2, 5] was 0.

For `CC(=O)N1CCN(c2ccc(OCC3COC(Cn4ccnc4)(c4ccc(Cl)cc4Cl)O3)cc2)CC1` (centres unmarked) [KETOCONAZOLE], the “Signature Projection Score (SPS)” value ([3]; rat, in vivo) was 29.

In the case of `O=C1[O][Pt]2([NH][C@@H]3CCCC[C@H]3[NH]2)[O]C1=O` [OXALIPLATIN], the “SPS (Bone Marrow)” value [1, 4] is reported as 18.

For `CCC1=C[C@@H]2CN(C1)Cc1c([nH]c3ccccc13)[C@@](C(=O)OC)(c1cc3c(cc1OC)N(C)[C@H]1[C@@](O)(C(=O)OC)[C@H](OC(C)=O)[C@]4(CC)C=CCN5CC[C@]31[C@@H]54)C2` [VINORELBINE], the “SPS (Bone Marrow)” value ([1]; rat, in vivo) was 132*.

`C#C[C@]1(O)CC[C@H]2[C@@H]3CCc4cc(O)ccc4[C@H]3CC[C@@]21C` [ETHINYLESTRADIOL] was tested, and the “Signature Projection Score (SPS)” value ([3]; rat, in vivo) was 75*.

In the case of `COc1c(C)c2c(c(O)c1C/C=C(\C)CCC(=O)OCCN1CCOCC1)C(=O)OC2` [MYCOPHENOLATE MOFETIL], the “SPS (Bone Marrow)” value [1, 4] is reported as 0.

With `CC(C)c1c(C(=O)Nc2ccccc2)c(-c2ccccc2)c(-c2ccc(F)cc2)n1CC[C@@H](O)C[C@@H](O)CC(=O)O` [ATORVASTATIN] the “Signature Projection Score (SPS)” value ([3]; rat, in vivo) was 29.

In the case of `CN(C)c1nc(N(C)C)nc(N(C)C)n1` [ALTRETAMINE], the “SPS (Bone Marrow)” value ([1]; rat, in vivo) is reported as 0 and the “SPS (Spleen)” value ([2]; rat, in vivo) is reported as 0.

With `Oc1c(Cl)cc(Cl)cc1Sc1cc(Cl)cc(Cl)c1O` [BITHIONOL] the “SPS (Bone Marrow)” value ([1]; rat, in vivo) was 0 and the “SPS (Spleen)” value ([2]; rat, in vivo) was 27.

With `OC(Cn1cncn1)(Cn1cncn1)c1ccc(F)cc1F` [FLUCONAZOLE] the “Signature Projection Score (SPS)” value ([3]; rat, in vivo) was 26.

In the case of `Clc1ccc(COC(Cn2ccnc2)c2ccc(Cl)cc2Cl)c(Cl)c1` (centres unmarked) [MICONAZOLE], the “Signature Projection Score (SPS)” value ([3]; rat, in vivo) is reported as 38.

In the case of `CCO` [ETHANOL], the “SPS (Bone Marrow)” value ([1]; rat, in vivo) is reported as 0.

With `CC1=C(/C=C/C(C)=C/C=C/C(C)=C\C(=O)O)C(C)(C)CCC1` [ISOTRETINOIN] the “Signature Projection Score (SPS)” value ([3]; rat, in vivo) was 23.

`Cc1ccc(C)c(OCCCC(C)(C)C(=O)O)c1` [GEMFIBROZIL] was tested, and the “Signature Projection Score (SPS)” value ([3]; rat, in vivo) was 18.

`C[C@]12CC[C@@H]3c4ccc(O)cc4CC[C@H]3[C@@H]1CC[C@@H]2O` [BETA ESTRADIOL] was tested, and the “Signature Projection Score (SPS)” value [3, 6] was 27.

For `CC[C@]1(O)C[C@H]2CN(CCc3c([nH]c4ccccc34)[C@@](C(=O)OC)(c3cc4c(cc3OC)N(C=O)[C@H]3[C@@](O)(C(=O)OC)[C@H](OC(C)=O)[C@]5(CC)C=CCN6CC[C@]43[C@@H]65)C2)C1` [VINCRISTINE], the “SPS (Bone Marrow)” value ([1]; rat, in vivo) was 126*.

`COc1cccc2c1C(=O)c1c(O)c3c(c(O)c1C2=O)C[C@@](O)(C(C)=O)C[C@@H]3O[C@H]1C[C@H](N)[C@H](O)[C@H](C)O1` [DAUNORUBICIN] was tested, and the “SPS (Bone Marrow)” value [1, 4] was 0.

`N.N.O=C([O-])C1(C(=O)[O-])CCC1.[Pt+2]` [CARBOPLATIN] was tested, and the “SPS (Bone Marrow)” value [1, 4] was 0 and the “SPS (Spleen)” value [2, 5] was 0.

`CC/C(=C(/CC)c1ccc(O)cc1)c1ccc(O)cc1` [DIETHYLSTILBESTROL] was tested, and the “SPS (Bone Marrow)” value ([1]; rat, in vivo) was 0, the “SPS (Spleen)” value ([2]; rat, in vivo) was 88* and the “Signature Projection Score (SPS)” value ([3]; rat, in vivo) was 33.

In the case of `CC(C)(Oc1ccc(CCNC(=O)c2ccc(Cl)cc2)cc1)C(=O)O` [BEZAFIBRATE], the “Signature Projection Score (SPS)” value ([3]; rat, in vivo) is reported as 16.

For `CN(C)C=O` [N,N-DIMETHYLFORMAMIDE], the “SPS (Bone Marrow)” value [1, 4] was 0 and the “SPS (Spleen)” value [2, 5] was 0.

For `CC[C@]1(O)C[C@@H]2CN(CCc3c([nH]c4ccccc34)[C@@](C(=O)OC)(c3cc4c(cc3OC)N(C)[C@H]3[C@@](O)(C(=O)OC)[C@H](OC(C)=O)[C@]5(CC)C=CCN6CC[C@]43[C@@H]65)C2)C1` [VINBLASTINE], the “SPS (Bone Marrow)” value ([1]; rat, in vivo) was 0.

`CC(C)n1c(/C=C/C(O)CC(O)CC(=O)O)c(-c2ccc(F)cc2)c2ccccc21` (centres unmarked) [FLUVASTATIN] was tested, and the “Signature Projection Score (SPS)” value ([3]; rat, in vivo) was 0.

For `O=C(c1ccc(OCCN2CCCCC2)cc1)c1c(-c2ccc(O)cc2)sc2cc(O)ccc12` [RALOXIFENE], the “Signature Projection Score (SPS)” value ([3]; rat, in vivo) was 23.

With `CC(C)(c1ccc(O)cc1)c1ccc(O)cc1` [BISPHENOL A] the “SPS (Bone Marrow)” value ([1]; rat, in vivo) was 0 and the “SPS (Spleen)” value ([2]; rat, in vivo) was 0.

In the case of `S=C=Nc1cccc2ccccc12` [1-NAPHTHYL ISOTHIOCYANATE], the “SPS (Bone Marrow)” value [1, 4] is reported as 0.

For `C[C@]12CCC(=O)C=C1CC[C@@H]1[C@@H]2CC[C@@]2(C)[C@H]1CC[C@]2(C)O` [17-METHYLTESTOSTERONE], the “Signature Projection Score (SPS)” value [3, 6] was 59*.

In the case of `O=NN(CCCl)C(=O)NCCCl` [CARMUSTINE], the “SPS (Bone Marrow)” value [1, 4] is reported as 0, the “SPS (Spleen)” value [2, 5] is reported as 0 and the “Signature Projection Score (SPS)” value [3, 6] is reported as 42.

In the case of `C[C@H]1O[C@@H](n2cc(F)c(=O)[nH]c2=O)[C@H](O)[C@@H]1O` [DOXIFLURIDINE], the “SPS (Bone Marrow)” value ([1]; rat, in vivo) is reported as 0.

For `O=C(O)CCCc1ccc(N(CCCl)CCCl)cc1` [CHLORAMBUCIL], the “SPS (Bone Marrow)” value [1, 4] was 0, the “SPS (Spleen)” value [2, 5] was 0 and the “Signature Projection Score (SPS)” value [3, 6] was 33.

`CS(=O)(=O)OCCCCOS(C)(=O)=O` [BUSULFAN] was tested, and the “SPS (Bone Marrow)” value ([1]; rat, in vivo) was 0, the “SPS (Spleen)” value ([2]; rat, in vivo) was 34 and the “Signature Projection Score (SPS)” value ([3]; rat, in vivo) was 43.

For `N.N.[Cl][Pt][Cl]` [CISPLATIN], the “SPS (Bone Marrow)” value [1, 4] was 0 and the “SPS (Spleen)” value [2, 5] was 0.

For `ClC(Cl)(Cl)Cl` [CARBON TETRACHLORIDE], the “SPS (Bone Marrow)” value [1, 4] was 0.

With `CC#C[C@]1(O)CC[C@H]2[C@@H]3CCC4=CC(=O)CCC4=C3[C@@H](c3ccc(N(C)C)cc3)C[C@@]21C` [MIFEPRISTONE] the “Signature Projection Score (SPS)” value ([3]; rat, in vivo) was 24.

`C[C@]12CC[C@@H]3c4ccc(O)cc4CC[C@H]3[C@@H]1C[C@@H](O)[C@@H]2O` [ESTRIOL] was tested, and the “Signature Projection Score (SPS)” value ([3]; rat, in vivo) was 41.

For `O=NN(CCCl)C(=O)NC1CCCCC1` [LOMUSTINE], the “SPS (Bone Marrow)” value [1, 4] was 0, the “SPS (Spleen)” value [2, 5] was 0 and the “Signature Projection Score (SPS)” value [3, 6] was 18.

With `C#C[C@]1(OC(C)=O)CC[C@H]2[C@@H]3CCC4=CC(=O)CC[C@@H]4[C@H]3CC[C@@]21C` [NORETHINDRONE ACETATE] the “Signature Projection Score (SPS)” value ([3]; rat, in vivo) was 26.
